Measured values published in patent publication US5916576A, “Method of scavenging free radicals using orange extract” (Amway Corporation, priority 1997, dated 1999).

Test: DPPH free radical scavenging activity test (percent inhibition, absorbency at 516 nm)
Type: biochemical
Conditions: Table 1; 1% solutions, in the manner of Example 1 (DPPH, 30 minutes at 37° C, 516 nm)
Protocol: A control solution was prepared by measuring 39.43 mg of 2,2-diphenyl-1-picrylhydrazyl hydrate (DPPH), a known source of free radicals, and diluting it to 1000 ml with ethanol. A control cuvette was charged with 1.75 ml of the control and 1.75 ml of ethanol. A blank cuvette was charged with 3.5 ml of ethanol. The cuvettes were placed in an oven for 30 minutes at 37° C. The absorbency was measured at 516 nm using a UV/vis spectrophotometer by placing the blank cuvette into the reference slot and the control cuvette into the sample slot.
An orange extract was prepared according to the method described above. A test cuvette was charged with 1.75 ml of the control solution and 1.75 ml of a 1% solution of orange extract. A reference cuvette was charged with 1.75 ml of the orange extract and 1.75 ml of ethanol. The cuvettes were placed in an oven for 30 minutes at 37° C. The absorbency was measured in the manner described above with the test cuvette placed in the sample slot and the reference cuvette placed in the reference slot.
The free radical scavenging activity was calculated as a percentage of inhibition of the generation of the free radicals using the following formula:
Percent Inhibition=100×[1-(DT/DR)]
DT is the measured absorbance of the test cuvette with respect to the reference cuvette and DR is the measured absorbance of the control cuvette with respect to the blank cuvette. […]

| Structure (SMILES) | % INHIBITION [%] |
| --- | --- |
| O=c1oc2cc(O)ccc2s1 [Tioxolone, tioxolone] | 50 |
| CC(=O)Oc1c(C)c(C)c2c(c1C)CCC(C)(CCC[C@H](C)CCC[C@H](C)CCCC(C)C)O2 (some centres unmarked) [Tocopheryl Acetate, tocopheryl acetate] | 67 |
